Measurements as given in patent US20250298000A1, “PREPARATION OF CULTURE MEDIUM AND USE THEREFOR IN WATER TOXICITY CO[…]” (CHANGCHUN INSTITUTE OF APPLIED CHEMISTRY, CHINESE ACADEMY …, priority 2022, published 2025).

Tested on: Bacillus subtilis
Assay: Colorimetric detection of water toxicity with Bacillus subtilis cultured in CM-Fe medium and potassium ferricyanide (Prussian blue, absorbance at 690 nm, 96-well plate)
Type: cell-based
Conditions: bacterial suspension OD600=2, 8 mM potassium ferricyanide, 20 min reaction; for detection limit (toxicant concentration discerned with naked eyes by color difference): sample photographs
Procedure: The inhibition rate is specifically calculated as: Inhibition %=(1−Abstox/Abscon)×100(1); • wherein, Abstox represents the peak value of the ultraviolet absorption spectrum of the sample to be detected at 690 nm, and Abscon represents the peak value of the ultraviolet absorption spectrum of the standard sample at 690 nm; • the IC50 value is calculated by: taking a concentration of toxicant in the water to be detected as the abscissa and the inhibition rate as the ordinate, drawing a curve, and fitting to obtain the IC50 value.
20 g of glucose, 15 g of peptone, 5 g of NaCl, 0.5 g of yeast extract and 0.001-10 g of ferric citrate were weighed, mixed and ground into powder by a dry grinding method in a ball mill to obtain a new culture medium CM-Fe.
1-100 g of CM and 1-100 g of CM-Fe culture media were added into two 1 L beakers respectively, adjusted to a volume of 1 L by adding deionized water, stirred, ultrasonicated, dissolved, and aliquoted in six 500 mL triangular flasks (3 for each culture medium), which were sealed with a sterile filtration sealing film, sterilized with high-temperature and high-pressure at 121° C. (98 kPa) for 5-40 min, and cooled down for later use.
Bacillus subtilis was inoculated into sterilized CM and CM-Fe culture media respectively, and cultured in a constant temperature shaker at 50-300 rpm at 37° C. for 8-30 h. The cultured bacterial liquid was centrifuged at 3000-10000 rpm for 1-20 min, then centrifuged and washed twice with 0.1-30% NaCl solution to remove the culture medium. Finally, Bacillus subtilis was resuspended in 0.1-30% NaCl solution and placed at 0-30° C. for later use.
100 μL of two suspensions of bacteria with OD600=2, 50 μL of Cu^2+ at varying concentrations and 50 μL of 8 mM potassium ferricyanide were mixed in the wells of a 96-well plate and reacted for 20 min. […] At low Cu^2+, concentrations, the color of the toxic samples was similar to that of the non-toxic samples. […] The final concentrations of toxicants from top to bottom were 0 mg/L, 0.49 mg/L, 0.98 mg/L, 1.95 mg/L, 3.9 mg/L, 7.8 mg/L and 15.63 mg/L, respectively. […]

Row | Structure (SMILES) | IC20 fitted from inhibition rate curve (peak at 690 nm) [µg/mL] | detection limit (toxicant concentration discerned with naked eyes by color difference) [mg/L]
1 | [Cu+2] [Cu^2+] | 2.4 | 3.9
2 | [Hg+2] [Hg^2+] | – | 0.49
